Test results taken from patent publication US20050203176A1, “Carbamates as HIV anti-viral agents” (WYETH, priority 2004, published 2005).
Where two headings read alike, the source gives them in different places.

Assays:
[1] = biological target: T1, HIV reverse transcriptase (RNase H activity) (Human immunodeficiency virus type 1 group M subtype B, UniProt P04585); experiment: RNase H / HIV reverse transcriptase inhibition (fluorescent probe-target hybrid assay); format: biochemical; conditions: inhibition of HIV reverse transcriptase / RNase H, Table I
T1 construct: HIV reverse transcriptase has an RNase H domain at the C-terminus of its p66 subunit
Excerpt: Preferably, the RNase H/HIV reverse transcriptase modulatory activity of the compounds of the present invention may be determined by the methods described in copending U.S. provisional patent Application No. 60/436,125, filed Dec. 19, 2003 and PCT Application Ser. No. WO 2004/059012, filed Dec. 22, 2003, published Jul. 15, 2004, entitled ASSAY FOR RNase ACTIVITY of Olsen et al., incorporated herein by reference in their entirety. Specifically, the modulatory activity of a carbamate derivative of the present invention may be determined by hybridizing a target nucleic acid to a fluorescently labeled oligonucleotide probe complementary to the target nucleic acid and containing a fluorophor at one terminus and a quenching group at the other terminus to obtain a probe-target hybrid, wherein (i) the unhybridized probe adopts a conformation that places the fluorophor and quencher in such proximity that the quencher quenches the fluorescent signal of the fluorophor, and (ii) the formation of the probe-target hybrid causes sufficient separation of the fluorophor and quencher to reduce quenching of the fluorescent signal of the fluorophor. Next, a first and second sample containing the probe-target hybrid are prepared. The probe-target hybrid of the first sample is then contacted with an RNase H enzyme (such as HIV reverse transcriptase) in an amount sufficient to selectively cleave the target nucleic acid and thereby release the intact probe. The probe-target hybrid of the second sample is also contacted with the RNase H enzyme in an amount sufficient to selectively cleave the target nucleic acid and thereby release the intact probe in the presence of a candidate carbamate derivative of the present invention. The release of the probe in each sample may then be detected by measuring the […] in the fluorescent signal of the fluorophor as compared to the signal of the probe-target hybrid. A comparison of the rate of the decrease in the fluorescent signal of the fluorophor in the two samples is made to determine whether there is a difference in the rate of the decrease in the two samples. […] This method is also useful to identify carbamate derivatives of the present invention, wherein candidate carbamate derivatives are screened for their ability to modulate RNase/HIV reverse transcriptase activity.

[2] = biological target: T2, HIV Reverse transcriptase (RT) p66/p51, RDDP activity (Human immunodeficiency virus type 1 group M subtype B, UniProt P04585); experiment: RNA dependent DNA polymerase (RDDP) activity of HIV RT, 33P TTP incorporation with polyrA-oligodT12-18; format: biochemical
T2 construct: […]; purchased Worthington

HIV-1 infection = conditions: cited from earlier work

Compound	IC50 [1] [µM]	IC50 [2] [µM]	also measured
Cc1ccc(NC(=O)CSC(=S)N(Cc2ccccc2)Cc2ccccc2)c(C)c1 [Example 1, 2-[(2,4-dimethylphenyl)amino]-2-oxoethyl dibenzyldithiocarbamate]	3.1	30	–
O=C(CSC(=S)N(Cc1ccccc1)Cc1ccccc1)Nc1ccc(Cl)cc1Cl [Example 4, 2-[(2,4-dichlorophenyl)amino]-2-oxoethyl dibenzyldithiocarbamate]	5.8	> 160	–
N#Cc1cccc(NC(=O)CSC(=S)N(Cc2ccccc2)c2ccccc2)c1 [Example 6, 2-[(3-cyanophenyl)amino]-2-oxoethyl benzyl(phenyl)dithiocarbamate]	11.4	> 80	–
COc1ccc(C)cc1NC(=O)CSC(=S)N(Cc1ccccc1)Cc1ccccc1 [Example 9]	46.2	> 80	–
CCN(CC)C(=S)S [diethyldicarbamate]	–	–	patients who died during eighteen-month follow up (HIV-1 infection; 3 placebo patients had died from AIDS): none; patients with AIDS at the end of the study (HIV-1 infection; HIV-1 patients Walter Reed stages 2-4, 24 weeks treatment, 6 of the placebo patients had AIDS): no patient; disease progression (HIV-1 infection; HIV-1 patients, group that received the drug vs placebo): Significantly delayed disease progression
Cc1cn([C@H]2C[C@H](N=[N+]=[N-])[C@@H](CO)O2)c(=O)[nH]c1=O [AZT, zidovudine, reference compound]	–	< 0.2	–
O=C(CSC(=S)N(Cc1ccccc1)Cc1ccccc1)Nc1ccc(Cl)c(Cl)c1Cl [Example 2, 2-oxo-2-[(2,3,4-trichlorophenyl)amino]ethyl dibenzyldithiocarbamate]	3.3	> 80	–
2-[(2,4-dimethylphenyl)amino]-2-oxoethyl dibenzyl(phenyl)dithiocarbamate [Example 8]	41.5	–	IC50 ([2]; inhibition of polymerase (RDDP) activity of HIV reverse transcriptase, Table II, read-out: IC50): > 80 µM
COc1ccc(C)cc1NC(=O)CSC(=S)N(Cc1ccccc1)c1ccccc1 [Example 5, 2-[(2-methoxy-5-methylphenyl)amino]-2-oxoethyl benzyl(phenyl)dithiocarbamate]	8.3	> 80	–
O=C(CSC(=S)N(Cc1ccccc1)c1ccccc1)Nc1ccc(Cl)c(Cl)c1Cl [Example 7, 2-oxo-2-[(2,3,4,-trichlorophenyl)amino]ethyl benzylphenyl dithiocarbamate]	26.6	> 80	–
N#Cc1cccc(NC(=O)CSC(=S)N(Cc2ccccc2)Cc2ccccc2)c1 [Example 3, 2-[(3-cyanophenyl)amino]-2-oxoethyl dibenzyldithiocarbamate]	4.7	> 80	–
